Data reported in article PMC10155203 (Molecular Pharmaceutics, 2023).
Where “and” joins values, the source holds several entries; their conditions need not be identical. Identical values can stand only once.

Assay: TIM-1 dynamic in vitro gastrointestinal model, bioaccessibility of 75 mg encorafenib capsule
Assay type: in vitro ADME
Conditions: for time of maximum bioaccessibility / maximum bioaccessibility / total bioaccessibility (cumulative): TIM-1, 75 mg capsule; for maximum bioaccessibility / total bioaccessibility (cumulative): mean ± SD
Source text: To investigate the bioaccessibility under the different test conditions (i.e., in the fasted state, fed state, and with the use of a PPI), a dynamic in vitro GI model TIM-1 (TNO; Zeist, Netherlands) was used, which has previously been described and detailed pictorially.[25],[26] The bioaccessibility of the drug refers to the amount of drug available for drug absorption. The two filters, which are located at the end of the jejunal and ileal compartment, will capture the dissolved fraction of drug as released from the drug formulation with the help of a filtration process. The dissolved fraction of drug is the sum of drug molecules dissolved in the aqueous media (i.e., molecularly dissolved and encapsulated in the colloidal structures such as micelles). The TIM-1 model is a complex in vitro GI simulator that models the dynamic processes and conditions present in the lumen of the gastric and small intestinal regions of the GI tract. The TIM-1 system consists of a stomach, duodenum, jejunum, and ileum compartment. For more information about the setup of the TIM-1 model, the reader is referred to external literature.[27] After dosing the drug product to the stomach compartment, the computer-controlled system controls the transit of the drug formulation to the intestinal compartments at a rate that reflects the in vivo transit conditions observed in fasted, fed, and PPI states. At the end of the jejunal and ileal compartments, a lipid filtration system is installed to separate the dissolved amount of drug from these compartments and evaluate the amount of drug available for drug absorption (i.e., the bioaccessible fraction of drug). The TIM-1 model is programmed to evaluate drug product behavior in fasted, fed, and PPI conditions.[19],[28],[29] Depending on the chosen clinical condition (PPI, fed), specific experimental protocol is executed. Fasted state is simulated by implementing a predefined pH curve controlled by secretion of 1 M HCl into the gastric compartment. The gastric pH starts at pH 3 (including the coadministered glass of water) and will decrease to pH 1.7 as gastric secretion will acidify the gastric content. When the fasted PPI state is simulated, gastric content is adjusted to pH 4.5, and only water is secreted into the stomach compartment to maintain constant pH. During fed state studies, gastric pH starts at pH 6.5 and will decrease to basic fasted conditions (pH 1.7) as the food empties the stomach, and gastric secretion will be activated. Due to secretion and transit, the volumes and pH remain constant in the intestinal compartments. […] For more information about the TIM-1 settings and the determination of bioaccessible fraction, the reader is referred to external literature.[27],[28] The bioaccessible fraction was determined by withdrawing samples from the filtrate (at the end of the jejunum and ileum compartment) and these samples were, subsequently, analyzed by HPLC. The expression of the bioaccessible fraction can be depicted in a cumulative or noncumulative order to observe how much drug will become available as a function of time. […]

time of maximum bioaccessibility (PPI): 1.5 h
maximum bioaccessibility (PPI): 18% and 18 ± 4%
total bioaccessibility (cumulative) (PPI): 83% and 83 ± 6%
time of maximum bioaccessibility (fasted): 1.5 h
maximum bioaccessibility (fasted): 16% and 16 ± 4%
total bioaccessibility (cumulative) (fasted): 77% and 77 ± 4%
time of maximum bioaccessibility (fed): 4 h
maximum bioaccessibility (fed): 13% and 13 ± 0%
total bioaccessibility (cumulative) (fed): 80% and 80 ± 1%
bioaccessible fraction (TIM-1, in the 3 conditions (fasted, fed, PPI)): ≥ 80%
Structure (SMILES): COC(=O)N[C@@H](C)CNc1nccc(-c2cn(C(C)C)nc2-c2cc(Cl)cc(NS(C)(=O)=O)c2F)n1 [encorafenib, Encorafenib]
